Assay results as given in patent publication US20200008426A1, “ACTIVE COMPOUND COMBINATIONS” (BAYER AKTIENGESELLSCHAFT, priority 2017, published 2020).

test: LogP by HPLC on reversed phase columns (EEC directive 79/831 Annex V.A8); details: Table 1, formula (I); LC-UV, acidic range, 0.1% formic acid in water and acetonitrile
Procedure: Measurement of LogP values was performed according to EEC directive 79/831 Annex V.A8 by HPLC (High Performance Liquid Chromatography) on reversed phase columns with the following methods:
Lambda-max-values were determined using UV-spectra from 200 nm to 400 nm and the peak values of the chromatographic signals.

SMILES | LogP [a]
CC(O)(Cn1cncn1)c1cnc(Oc2ccc(S(F)(F)(F)(F)F)cc2)cc1C(F)(F)F (centres unmarked) [I.37] | 3.33^[a]
OC(Cn1cncn1)c1ccc(Oc2ccc(C(F)F)cc2)nc1Cl (centres unmarked) [I.38] | 2.17^[a]
CC(O)(Cn1cncn1)c1ccc(Oc2ccc(C(F)F)cc2)nc1Cl (centres unmarked) [I.39] | 2.41^[a]
OC(Cn1cncn1)c1ccc(Oc2ccc(Br)cc2)nc1C(F)(F)F (centres unmarked) [I.40] | 2.82^[a]
OC(Cn1cncn1)c1ccc(Oc2ccc(Cl)cc2)nc1F (centres unmarked) [I.41] | 2.23^[a]
CC(O)(Cn1cncn1)c1ccc(Oc2ccc(Cl)cc2)nc1F (centres unmarked) [I.42] | 2.46^[a]
OC(Cn1cncn1)c1cnc(Oc2ccc(OC(F)(F)F)cc2)cc1C(F)(F)F (centres unmarked) [I.43] | 3.00^[a]
CC(O)(Cn1cncn1)c1cnc(Oc2ccc(OC(F)(F)F)cc2)cc1C(F)(F)F (centres unmarked) [I.44] | 3.23^[a]
OC(Cn1cncn1)c1cnc(Oc2ccc(Br)cc2)cc1C(F)(F)F (centres unmarked) [I.48] | 2.75^[a]
CC(O)(Cn1cncn1)c1cnc(Oc2ccc(Br)cc2)cc1C(F)(F)F (centres unmarked) [I.49] | 2.96^[a]
CC(O)(Cn1cncn1)c1cnc(Oc2ccc(C(F)(F)F)cc2)cc1C(F)(F)F (centres unmarked) [I.50] | 3.11^[a]
OC(Cn1cncn1)c1cnc(Oc2ccc(C(F)F)cc2)cc1C(F)(F)F (centres unmarked) [I.55] | 2.55^[a]
CC(O)(Cn1cncn1)c1cnc(Oc2ccc(C(F)F)cc2)cc1C(F)(F)F (centres unmarked) [I.56] | 2.73^[a]
OC(Cn1cncn1)c1cnc(Oc2ccc(Cl)cc2F)cc1C(F)(F)F (centres unmarked) [I.57] | 2.86^[a]
CC(O)(Cn1cncn1)c1cnc(Oc2ccc(Cl)cc2F)cc1C(F)(F)F (centres unmarked) [I.58] | 3.02^[a]
OC(Cn1cncn1)c1ccc(Oc2ccc(S(F)(F)(F)(F)F)cc2)nc1C(F)(F)F (centres unmarked) [I.60] | 3.08^[a]
OC(Cn1cncn1)c1ccc(Oc2ccc(C(F)(F)F)cc2)nc1C(F)(F)F (centres unmarked) [I.61] | 2.84^[a]
CC(O)(Cn1cncn1)c1ccc(Oc2ccc(S(F)(F)(F)(F)F)cc2)nc1C(F)(F)F (centres unmarked) [I.62] | 3.25^[a]
OC(Cn1cncn1)c1cnc(Oc2ccc(Br)cc2)cc1C(F)F (centres unmarked) [I.63] | 2.59^[a]
CC(O)(Cn1cncn1)c1cnc(Oc2ccc(Cl)cc2)cc1C(F)F (centres unmarked) [I.64] | 2.68^[a]
CC(O)(Cn1cncn1)c1ccc(Oc2ccc(C(F)(F)F)cc2)nc1C(F)(F)F (centres unmarked) [I.65] | 3.04^[a]
CC(O)(Cn1cncn1)c1ccc(Oc2ccc(Cl)cc2F)nc1C(F)(F)F (centres unmarked) [I.66] | 2.80^[a]

SMILES | LogP [a]
CC(O)(Cn1cncn1)c1ccc(Oc2ccc(Cl)cc2)nc1C(F)(F)F (centres unmarked) [I.67] | 2.68^[a]
OC(Cn1cncn1)c1cnc(Oc2ccc(Cl)cc2)cc1Cl (centres unmarked) [I.68] | 2.48^[a]
C=CC(O)(Cn1cncn1)c1cnc(Oc2ccc(C(F)(F)F)cc2)cc1C(F)(F)F (centres unmarked) [I.69] | 3.33^[a]
OC(Cn1cncn1)c1ccc(Oc2ccc(Cl)cc2F)nc1C(F)(F)F (centres unmarked) [I.70] | 2.78^[a]
OC(Cn1cncn1)(c1ccc(Oc2ccc(Cl)cc2)nc1C(F)(F)F)C1CC1 (centres unmarked) [I.71] | 3.35^[a]
OC(Cn1cncn1)c1ccc(Oc2ccc(Br)cc2)nc1C(F)F (centres unmarked) [I.73] | 2.50^[a]
OC(Cn1cncn1)c1ccc(Oc2ccc(C(F)F)cc2)nc1C(F)(F)F (centres unmarked) [I.74] | 2.49^[a]
CC(C)c1ccc(Oc2ccc(C(C)(O)Cn3cncn3)c(C(F)(F)F)n2)cc1 (centres unmarked) [I.75] | 3.35^[a]
CCC(O)(Cn1cncn1)c1cnc(Oc2ccc(C(F)(F)F)cc2)cc1C(F)(F)F (centres unmarked) [I.76] | 3.52^[a]
CC(O)(Cn1cncn1)c1ccc(Oc2ccc(F)cc2)nc1Oc1ccc(F)cc1 (centres unmarked) [I.77] | 3.13^[a]
CC(O)(Cn1cncn1)c1cnc(Oc2ccc(C(F)(F)F)cc2)cc1Cl (centres unmarked) [I.78] | 2.88^[a]
OC(Cn1cncn1)c1ccc(Oc2ccc(OC(F)(F)F)cc2)nc1C(F)(F)F (centres unmarked) [I.79] | 2.89^[a]
OC(Cn1cncn1)(c1ccc(Oc2ccc(Cl)cc2)nc1C(F)(F)F)C1CC1 (centres unmarked) [I.80] | 3.32^[a]
CC(O)(Cn1cncn1)c1cnc(Oc2ccc(Br)cc2)cc1C(F)F (centres unmarked) [I.82] | 2.78^[a]
OC(Cn1cncn1)(c1ccc(Oc2ccc(Br)cc2)nc1C(F)(F)F)C(F)(F)F (centres unmarked) [I.85] | 3.48^[a]
OC(Cn1cncn1)(c1ccc(Oc2ccc(C(F)(F)F)cc2)nc1C(F)(F)F)C1CC1 (centres unmarked) [I.87] | 3.57^[a]
OC(Cn1cncn1)c1cnc(Oc2ccc(C(F)(F)F)cc2)cc1Cl (centres unmarked) [I.88] | 2.64^[a]
CC(O)(Cn1cncn1)c1ccc(Oc2ccc(Cl)cc2F)nc1C(F)(F)F (centres unmarked) [I.89] | 3.15^[a]
OC(Cn1cncn1)c1ccc(Oc2ccc(Cl)cc2F)nc1C(F)(F)F (centres unmarked) [I.90] | 2.88^[a]
OC(Cn1cncn1)(c1ccc(Oc2ccc(C(F)F)cc2)nc1C(F)(F)F)C1CC1 (centres unmarked) [I.93] | 3.13^[a]
OC(Cn1cncn1)c1cnc(Oc2ccc(Cl)cc2)cc1C(F)F (centres unmarked) [I.94] | 2.13^[a]

same assay, conditions: Table 2, formula (V); LC-UV, acidic range, 0.1% formic acid in water and acetonitrile

SMILES | LogP [a]
CC(=O)c1cnc(Oc2ccc(S(F)(F)(F)(F)F)cc2)cc1C(F)(F)F [V.03] | 4.32^[a]
CC(=O)c1cnc(Oc2ccc(C(F)F)cc2)cc1C(F)(F)F [V.04] | 3.62^[a]
CC(=O)c1ccc(Oc2ccc(Cl)cc2)nc1C(F)F [V.05] | 3.35^[a]
CC(=O)c1ccc(Oc2ccc(Cl)cc2)nc1OC(F)(F)F [V.06] | 4.37^[a]
CC(=O)c1cnc(Oc2ccc(Cl)cc2F)cc1C(F)(F)F [V.07] | 4.09^[a]
CC(=O)c1cnc(Oc2ccccc2)cc1Cl [V.08] | 2.94
CC(=O)c1cnc(Oc2ccc(Cl)cc2)cc1Cl [V.09] | 3.52
CC(=O)c1ccc(Oc2ccc(Cl)cc2)nc1Cl [V.10] | 3.47
CC(=O)c1ccc(Oc2ccc(Cl)c(Cl)c2)nc1Cl [V.11] | 4.10^[a]
CC(=O)c1ccc(Oc2ccc(F)cc2)nc1Cl [V.12] | 3.11^[a]
CC(=O)c1ccc(Oc2ccc(C(F)F)cc2)nc1Cl [V.14] | 3.15^[a]
CC(=O)c1cnc(Oc2ccc(OC(F)(F)F)cc2)cc1C(F)(F)F [V.15] | 4.20^[a]
CC(=O)c1ccc(Oc2ccc(S(F)(F)(F)(F)F)cc2)nc1C(F)(F)F [V.16] | 4.09^[a]
CC(=O)c1ccc(Oc2ccc(C(F)(F)F)cc2)nc1C(F)(F)F [V.17] | 3.96^[a]
CC(=O)c1cnc(Oc2ccc(C(F)(F)F)cc2)cc1Cl [V.18] | 3.87^[a]
CC(=O)c1cnc(Oc2ccc(Cl)cc2)cc1C(C)=O [V.19] | 3.11^[a]

SMILES | LogP [a]
CC(=O)c1ccc(Oc2ccc(Br)cc2)nc1C(F)(F)F [V.20] | 3.85^[a]
CC(=O)c1ccc(Oc2ccccc2)nc1Cl [V.21] | 2.94
CC(=O)c1cnc(Oc2ccc(Cl)cc2)cc1Cl [V.22] | 3.51^[a]
CC(=O)c1ccc(Oc2ccc(Cl)cc2)nc1F [V.24] | 3.51^[a]
CC(=O)c1cnc(Oc2ccc(C(F)(F)F)cc2)cc1C(F)(F)F [V.25] | 4.04^[a]
CC(=O)c1ccc(Oc2ccc(Cl)cc2)nc1Cl [V.26] | 3.45^[a]
CC(=O)c1cnc(Oc2ccc(Br)cc2)cc1C(F)(F)F [V.27] | 3.99^[a]
CC(=O)c1ccc(Oc2ccc(OC(F)(F)F)cc2)nc1Cl [V.28] | 3.89^[a]
COc1ccc(Oc2ccc(C(C)=O)c(Cl)n2)c(Cl)c1 [V.29] | 3.44^[a]
CC(=O)c1ccc(Oc2ccc(S(F)(F)(F)(F)F)cc2)nc1Cl [V.30] | 3.99^[a]
CC(=O)c1ccc(Oc2c(F)cc(Cl)cc2F)nc1C(F)(F)F [V.31] | 4.06^[a]
CC(=O)c1ccc(Oc2ccc(C(F)F)cc2)nc1C(F)(F)F [V.32] | 3.26^[a]
O=C(c1ccc(Oc2ccc(C(F)(F)F)cc2)nc1C(F)(F)F)C1CC1 [V.39] | 4.37^[a]
O=Cc1ccc(Oc2ccc(C(=O)C3CC3)c(C(F)(F)F)n2)cc1 [V.42] | 3.21^[a]
O=C(c1ccc(Oc2ccc(S(F)(F)(F)(F)F)cc2)nc1C(F)(F)F)C1CC1 [V.43] | 4.67^[a]

same assay, conditions: Table 2, formula (V); LC-UV, neutral range, 0.001 molar ammonium acetate in water and acetonitrile

SMILES | LogP [b]
CC(=O)c1cnc(Oc2ccccc2)cc1Cl [V.08] | 2.86
CC(=O)c1cnc(Oc2ccc(Cl)cc2)cc1Cl [V.09] | 3.42
CC(=O)c1ccc(Oc2ccc(Cl)cc2)nc1Cl [V.10] | 3.36
CC(=O)c1ccc(Oc2ccccc2)nc1Cl [V.21] | 2.85

same assay, conditions: Table 5, formula (IX); LC-UV, acidic range, 0.1% formic acid in water and acetonitrile

SMILES | LogP [a]
FC(F)(F)c1nc(Oc2ccc(S(F)(F)(F)(F)F)cc2)ccc1C1(C2CC2)CO1 (centres unmarked) [IX.09] | 5.22^[a]

same assay, conditions: reversed-phase HPLC column

SMILES | chromatographic logP
OC(Cn1cncn1)(c1ccc(Oc2ccc(Br)cc2)nc1C(F)(F)F)C1CC1 (centres unmarked) [I.81, 1-[6-(4-bromophenoxy)-2-(trifluoromethyl)pyridin-3-yl]-1-cyclopropyl-2-(1H-1,2,4-triazol-1-yl)ethanol] | 3.7
